“Also recorded” adds a separate entry of the source.
How the values were obtained:
[1] = system: human ovarian cancer SKOV3; experiment: Human ovarian cancer SKOV3 animal model, tumor volume; type: in vivo; settings: 80 mg/kg 3 cycles 5 days on/2 days off vs continuous 60 mg/kg, 21 days
Procedure: In an exemplary human ovarian cancer SKOV3 animal model, Azenosertib was administered at a continuous dose of 60 mg/kg or at an intermittent dosing of 80 mg/kg at 3 cycles of 5 days on/2 days off (5/2).

[2] = system: non-small cell lung carcinoma (NSCLC) A427; experiment: Non-small cell lung carcinoma (NSCLC) A427 model, tumor volume and body weight; type: in vivo, human
Procedure: In an exemplary non-small cell lung carcinoma (NSCLC) A427 model, Azenosertib was administered at a higher intermittent dose than a corresponding lower continuous dose. For example, Azenosertib was administered at 56 mg/kg in 4 dosing cycles of 5 days on/2 days off (5/2) and compared with a lower continuous dose of 40 mg/kg. Similarly, 112 mg/kg of Azenosertib in 4 dosing cycles of 5 days on/2 days off was compared with a lower continuous dose of 80 mg/kg.
The tumor volume was measured (FIG. 1C) as well as body weight (FIG. 1D) for 28 days post initiation of treatment.
In an exemplary non-small cell lung carcinoma (NSCLC) A427 model, Azenosertib was administered at a higher intermittent dose than a corresponding lower continuous dose. For example, Azenosertib was administered at 100 mg/kg in 4 dosing cycles of 4 days on/3 days off (4/3) and compared with a lower continuous dose of 60 mg/kg.
Change in tumor volume over 25 days post tumor initiation is shown in FIG. 1E, while corresponding change in body weight during treatment is shown in FIG. 1F.

[3] = system: breast ductal carcinoma HCC1569; experiment: Breast ductal carcinoma HCC1569 model, tumor volume; type: in vivo, human
Procedure: In an exemplary breast ductal carcinoma HCC1569 model, Azenosertib was administered at a dose of about 100 mg/kg at intermittent dosing regimen of 3 cycles of 4 days on/3 days off (4/3) and 3 days on/4 days off (3/4) and compared with a lower continuous dose (e.g., 60 mg/kg). Tumor volume change was plotted in FIG. 1G and corresponding change in body weight in FIG. 1H until about 24 days post-initiation of treatment.

[4] = molecular target: T1, Wee1 (Homo sapiens, UniProt P30291); experiment: PK/PD correlation, Wee1 target engagement (p-CDK1 in skin biopsies); type: in vivo
T1 construct: from tissue; host or cells: skin biopsies of treated subjects
From the text: CDK1 phosphorylation (pCDK-1) is mediated by Wee1. It is contemplated that Wee1 inhibition by Azenosertib results in pCDK1 inhibition.

[5] = system: ovarian cancer and uterine serous carcinoma (USC); experiment: Phase 1a/1b Azenosertib monotherapy study, tumor response (RECIST 1.1); type: in vivo, human
Procedure: (§1) In this example, a Phase 1a dose escalation and Phase 1b dose expansion clinical study was carried out to evaluate the safety and pharmacokinetics (PK), i.e. steady state exposure (AUC0-24) and concentration maximum (Cmax) of Azenosertib monotherapy.
(§2) In some cohorts, a phase 1a dose escalation was carried out starting at doses below 200 mg, escalating to 200 mg, 300 mg, 350 mg, 400 mg, and 450 mg total daily dose in continuous dosing regimen. The dose used in Phase 1b was 300 mg QD.
(§3) In some cohorts, a phase 1a dose escalation was carried out starting at doses of 350 mg, 400 mg, 450 mg and 500 mg total daily dose at a 5:2 or 4:3 dosing regimen. The doses used in Phase 1b were 350 mg and 400 mg at 5:2 dosing regimen.
Tumor assessments (per RECIST 1.1) were carried out every 2 cycles (6 weeks) in subjects recruited in the study. There were no biomarker requirements to enroll in the study; nor were there any prior therapy requirements. Individuals in the cohorts represented multiple tumor types (FIG. 9A). Heavily pretreated subjects with advanced solid tumors were included in continuous and intermittent dosing cohorts (Table 6).
51 subjects were enrolled with Uterine Serous Carcinoma (USC) or High Grade Serous Ovarian Cancer (HGSOC) after multiple prior therapies in cohorts treated with continuous or intermittent dosing schedules (Table 7A) and intermittent dosing schedule only (Table 7B).
(§4) A total of 127 heavily pretreated subjects with advanced solid tumors were treated with Azenosertib monotherapy at ascending dose levels of either continuous daily dosing or intermittent weekly administration schedules. Across all tumor types, 74 subjects were treated with continuous dosing schedules and 53 subjects were treated with intermittent dosing schedules.

[6] = Phase 1 Azenosertib monotherapy study, PK, safety and RP2D; type: in vivo, human
Procedure: as §1, §2, §3
In this example, a Phase 1 Azenosertib dose optimization study was carried out to evaluate the recommended phase II dose (RP2D) of Azenosertib monotherapy.
as §4

[7] = Half-life of Azenosertib; type: in vivo; settings: plasma
[8] = intermittent dosing cohort, platinum-resistant ovarian cancer and USC, median follow-up 9.2 months

T1 sequence (P30291 whole entry): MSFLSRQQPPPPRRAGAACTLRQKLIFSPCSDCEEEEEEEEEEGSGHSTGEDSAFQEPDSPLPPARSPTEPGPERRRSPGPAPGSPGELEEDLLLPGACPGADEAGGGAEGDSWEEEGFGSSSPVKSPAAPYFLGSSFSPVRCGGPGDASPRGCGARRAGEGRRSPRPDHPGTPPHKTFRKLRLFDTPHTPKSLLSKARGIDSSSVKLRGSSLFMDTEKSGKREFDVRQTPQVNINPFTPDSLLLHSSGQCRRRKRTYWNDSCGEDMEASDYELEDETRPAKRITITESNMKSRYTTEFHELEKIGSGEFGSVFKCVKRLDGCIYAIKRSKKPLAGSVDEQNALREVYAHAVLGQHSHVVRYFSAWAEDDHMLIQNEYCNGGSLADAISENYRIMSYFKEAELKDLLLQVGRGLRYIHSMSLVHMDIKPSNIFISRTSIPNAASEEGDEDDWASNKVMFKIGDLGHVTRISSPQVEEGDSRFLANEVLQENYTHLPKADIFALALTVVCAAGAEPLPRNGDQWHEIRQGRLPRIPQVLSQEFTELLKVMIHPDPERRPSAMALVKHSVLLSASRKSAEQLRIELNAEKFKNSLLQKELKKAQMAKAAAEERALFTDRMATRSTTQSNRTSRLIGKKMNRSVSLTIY

With `C=CCn1c(=O)c2cnc(Nc3ccc(N4CCN(C)CC4)cc3)nc2n1-c1ccc2c(n1)[C@@](O)(CC)CC2` [Azenosertib, (R)-2-allyl-1-(7-ethyl-7-hydroxy-6,7-dihydro-5H-cyclopenta[b]pyridin-2-yl)-6-((4-(4-methylpiperazin-1-yl)phenyl)amino)-1,2-dihydro-3H-pyrazolo[3,4-d]pyrimidin-3-one] the “change in tumor volume, intermittent vs continuous dosing” value [1] was “more efficacious; also recorded: higher efficacy than continuous dosing in reducing tumor volume”, the “tumor volume, intermittent vs continuous dosing” value ([2]; 100 mg/kg 4 cycles 4 days on/3 days off vs continuous 60 mg/kg, 25 days) was “more efficacious; also recorded: slightly more efficacy than lower continuous dosing” and the “tumor volume, intermittent vs continuous dosing” value ([2]; 56 or 112 mg/kg 4 cycles 5 days on/2 days off vs continuous 40 or 80 mg/kg, same total cumulative dose, 28 days) was “more efficacious; also recorded: more efficacy in reducing tumor volume than lower continuous dosing”. For the same compound, the “tolerability (body weight)” value ([2]; all doses (40, 80 mg/kg continuous; 56, 112 mg/kg 5/2)) was “well tolerated”, the “tumor volume, intermittent vs continuous dosing” value ([3]; about 100 mg/kg 3 cycles 4/3 and 3/4 vs continuous 60 mg/kg, about 24 days) was “more efficacious” and the “efficacy of 4 days on/3 days off vs 3 days on/4 days off” value ([3]; about 100 mg/kg, 3 cycles) was “comparable in efficacy”. The “decrease of p-CDK1 levels” value ([4]; dose of greater than about 300 mg once daily) was “at least 50%”, the “p-CDK1 levels in skin biopsies following treatment relative to baseline” value ([4]; skin biopsies) was “decreases in p-CDK1 levels” and the “overall Objective Response Rate (ORR %)” value ([5]; Azenosertib monotherapy, N=51, N with at least 1 scan=40) was 27.5%. The “subjects with stable disease (SD) or partial response (PR) as best overall response” value ([5]; USC and HGSOC subjects) was 95%, the “subjects with target lesion reductions from baseline scans” value ([5]; USC and HGSOC subjects) was 89% and the ORR % [5, 8] was 36.8%. For the same compound, the mPFS [5, 8] was 6.5 months, the “median PFS” value ([5]; ovarian, early follow up of median 4.4 months) was “around 5.1 months” and the “steady state exposure AUC (0-24), intermittent RP2D vs continuous” value ([6]; 400 mg QD 5/2 compared to 300 mg QD continuous administration) was “more than doubled”. For the same compound, the “cases of febrile neutropenia and sepsis” value ([6]; Azenosertib monotherapy including intermittent dosing) was “no observed cases of febrile neutropenia and sepsis”, the “RP2D as a monotherapy” value ([6]; daily (QD), 5 days on, 2 days off (5/2) weekly schedule) was 400 mg and the “discontinuations due to TRAEs” value ([6]; intermittent cohorts) was “no reported discontinuation; also recorded: No discontinuations due to TRAEs”. The “gastrointestinal, fatigue, and hematologic Grade 3 and 4 treatment-related adverse events (TRAEs)” value ([6]; intermittent versus continuous dosing) was “comparable or favorable versus continuous dosing”, the “safety and tolerability, intermittent vs continuous dosing” value ([6]; monotherapy) was “improved tolerability” and the “maximal concentration (Cmax) levels, intermittent vs continuous dosing regimen” value ([6]; monotherapy, Phase 1) was “higher maximal concentration (Cmax) levels”. It also gave a half-life [7] of 8 h.

From patent US20250262214A1, “INTERMITTENT DOSING REGIMEN FOR AZENOSERTIB IN TREATING CANCER” (Zeno Management, Inc., priority 2022, published 2025)
